Assay: Half life in Sprague-Dawley rat at 10 mg/kg, po measured after 0.083 to 24 hrs post dose by LC/MS/MS analysis
Type: ADME, organism-based
Details: in vivo

- half-life: 3.55 h
Compound: CCn1ncc2cc(-c3cc(=O)n4ncc(-c5nc(C)no5)c4[nH]3)ccc21

From ChEMBL document CHEMBL4418486, “Heterocyclic compounds for the inhibition of pask” (2015)
